According to US20050245465A1, “Compounds for treating Alzheimer's disease and for inhibiting beta-amyloid peptitde production” (priority 2004, published 2005):
“Also recorded” adds a separate entry of the source.

What was measured:
[1] = tested on: CHO cells expressing human APP; test: Secreted Aβ40/Aβ42 ELISA in medium of CHO-APP cells; type: cell-based, Chinese hamster; design: key to Aβ42-lowering activity: Aβ42-lowering activity (“Yes”); no profound effects (“No”); non-determined (“ND”); Ginsenosides that affected cell viability are indicated as “Cytotoxic.”; conditions: for Aβ42-lowering activity: Tables 1-3; for inhibitory effects on Aβ40 and Aβ42 production: 8 hours of incubation, ginsenosides from white ginseng
Procedure: The CHO cells were treated with the indicated compounds (at 50 μg/ml) for 8 hrs. Aβ42 levels in the medium were measured by ELISA and normalized to intracellular full-length APP.
The potential effects of ginsenosides and their analogues in treating AD were examined. First, a number of ginsenosides were screened based on their effects on Aβ generation. The effects of various ginsenosides on Aβ (e.g., Aβ40 and Aβ42) production was initially accessed by incubating the Chinese hamster ovary (CHO) cells expressing human APP(CHO-APP cells) with each ginsenoside purified from unprocessed ginseng (known as “white ginseng”). These representative ginsenosides included Rb1, Rb2, Rc, Rd, Re, Re, Rg1 and Rg2 and differ in their side chains and sugar moieties.
After 8 hours of incubation, the media were collected and the levels of secreted Aβ40 and Aβ42 were determined by ELISA.
Steaming ginseng at high temperature gave rise to additional ginsenosides with enhanced pharmacological activity, including (20S)Rg3, Rk1 and Rg5 (22-25). Next, the effects of these heat-processing derived ginsenosides (e.g., (20S)Rg3, Rh1, Rh2, Rk1, Rg6, Rg5) on Aβ40 and Aβ42 generation were tested. […] In contrast, Aβ42 levels were not affected by (20R)Rg3, Rh1, and Rg6. Aβ40 levels were not changed by treatment with any of the ginsenosides tested. The potency of Aβ42-lowering activity was highest with Rk1 and (20S)Rg3. […] The secretion of Aβ40 was affected by treatment with Rk1 only at very high concentration (˜100 μM) and cell viability was not affected by treatment of Rk1 under these conditions (up to 100 μM, 8 hour treatment; data not shown). […] Overnight treatment with Rgk351, Rk1, and Rg5 also reduce Aβ42 production in CHO-APP cells (FIG. 12B). […] These studies provide a structure-activity relationship between the chemical structures of ginsenosides and Aβ42-lowering activity, further providing the basis for designing additional Aβ42-lowering analogues as well as for defining a class of compounds that harbor Aβ42-lowering activity.

γ-secretase [2] = test: Cell-free generation of intracellular domains (AICD, NICD, p75-ICD) in membrane fractions of 293 cells; type: biochemical; conditions: membrane fractions from 293 cells overexpressing APP, Notch-ΔE or p75-ΔE
Procedure: Membrane fractions isolated from 293 cells overexpressing either APP (A), Notch-ΔE (B) or p75-ΔE (C) and incubated in the presence of indicated compounds: Compound E (CpdE, general γ-secretase inhibitor), Rgk351, Rk1 and sulindac sulfide (SS).
Since the effect of Rk1 was rather selective to Aβ42 (but not Aβ40) in a cell-based assay, the question of whether Rk1 affects other γ-secretase-mediated cleavage events, including the generation of AICD resulted from a transmembrane cleavage of APP distal from either Aβ40 or Aβ42 site, and γ-secretase-mediated intramembrane cleavage of Notch1 or p75 neurotrophin receptor (p75NTR) to yield Notch1 or p75NTR intracellular domains (NICD or p75-ICD, respectively) was tested. The cell-free generation of AICD, NICD and p75-ICD was not affected by incubation with Rgk351 or Rk1 (FIG. 5).

[3] = tested on: Neuro2a cells expressing the human Swedish mutant form of APP; test: Aβ generation in Neuro2a-SW cells; type: cell-based, mouse; conditions: for levels of Aβ42 / production of Aβ42: Neuro2a-SW, also CHO cells expressing wild-type human APP
Description: FIG. 16 depicts the effects of two major metabolites of ginsenosides, including 20(S)-protopanaxatriol (PPT) and 20(S)-protopanaxadiol (PPD) on Aβ42 generation. 20(S)-panaxatriol (PT) and 20(S)-panaxadiol (PD) are the artificial derivatives of PPT and PPPD, respectively.
Ginsenosides are metabolized by human intestinal bacteria after oral administration of ginseng extract (Kobayashi K., et al., Metabolism of ginsenoside by human intestinal bacteria [II] Ginseng Review 1994; 18: 10-14; Hasegawa H., et al., Main ginseng saponin metabolites formed by intestinal bacteria. Planta Med. 1996; 62: 453-457.). Therefore, the effects of two major metabolites of ginsenosides, including 20(S)-protopanaxatriol (PPT) and 20(S)-protopanaxadiol (PPD) on Aβ42 generation were tested. 20(S)-panaxatriol (PT) and 20(S)-panaxadiol (PD) are the artificial derivatives of PPT and PPPD, respectively.

γ-secretase [4] = test: Cell-free γ-secretase assay (CHAPSO-solubilized membrane fractions, Aβ ELISA); type: biochemical; conditions: cell-free γ-secretase assay, partially purified γ-secretase complex; 100 μM
Procedure: (A) CHAPSO-solubilized membrane fractions were incubated with recombinant γ-secretase substrates together with the indicated compounds (at 100 μM) and the levels of Aβ42 and Aβ40 were determined by ELISA as described (27-29). (B) Dose-response of Aβ40 and Aβ42-lowering activity of Rk1 and (20S)Rg3 in a cell-free γ-secretase assay.
Next, the inhibitory effects of Rk1 and (20S)Rg3 on Aβ generation in an in vitro γ-secretase assay was studied. […] In contrast, naproxen, an NSAID without Aβ42-lowering activity, had no effects on Aβ42 production (FIG. 15A).

CHO-APP/PS1 cells = test: Secreted Aβ40/Aβ42 ELISA in CHO-APP/PS1 cells; type: cell-based, Chinese hamster; conditions: 50 μM, 8 hrs
Procedure: FIG. 10 depicts the effects of native ginsenosides on Aβ42 production. CHO cells stably transfected with human APP695 together with either wild-type (A, CHO-APP/PS1 cells) or ΔE9 FAD mutant (B, CHO-APP/ΔE9PS1 cells) forms of PS1 were used. Cells were treated with the indicated compounds (at 50 μM) for 8 hrs. Levels of secreted Aβ40 and Aβ42 in the medium were determined by ELISA and normalized to intracellular full-length APP. In CHO-APP/PS1 cells, average Aβ amounts in control samples were 320 pM for Aβ40 and 79 pM for Aβ42. The relative levels of Aβ and Aβ42 were normalized to values obtained from non-treated and vehicle-treated cells and are shown as % to control+s.d.). One of three representative experiments are shown.
CHO-APP/PS1 (A) and CHO-APP/ΔE9PS1 (B) cells were treated with the indicated compounds at 50 μM for 8 hrs and the levels of secreted Aβ40 and Aβ42 were determined as described in FIG. 1. […] The PS1-ΔE9 FAD mutation diminished the Aβ42 response to Rk1 treatment (B).

## C=C(CCC=C(C)C)[C@H]1CC[C@]2(C)[C@@H]1[C@H](O)C[C@@H]1[C@@]3(C)CC[C@H](O)C(C)(C)[C@@H]3[C@@H](O[C@@H]3O[C@H](CO)[C@@H](O)[C@H](O)[C@H]3O)C[C@]12C [Rk3]
[1]
  Aβ42-lowering activity: No

## C[C@H](NC(=O)Cc1cc(F)cc(F)c1)C(=O)N[C@H]1N=C(c2ccccc2)c2ccccc2N(C)C1=O [Compound E]
γ-secretase [2]
  cell-free generation of AICD, NICD and p75-ICD: Very low amounts; also recorded: efficiently inhibited

## CC1(C)CCC[C@](C)([C@H]2CC[C@]3(C)[C@@H]2[C@H](O)C[C@@H]2[C@@]4(C)CC[C@H](O)C(C)(C)[C@@H]4CC[C@]23C)O1 [PD, 20(S)-panaxadiol]
[3]
  inhibitory effects on Aβ40 or Aβ42 generation: did not confer any inhibitory effects

## CC(C)=CCC[C@](C)(O[C@@H]1O[C@H](CO[C@@H]2OC[C@@H](O)[C@H](O)[C@H]2O)[C@@H](O)[C@H](O)[C@H]1O)[C@H]1CC[C@]2(C)[C@@H]1[C@H](O)C[C@@H]1[C@@]3(C)CC[C@H](O[C@@H]4O[C@H](CO)[C@@H](O)[C@H](O)[C@H]4O[C@@H]4O[C@H](CO)[C@@H](O)[C@H](O)[C@H]4O)C(C)(C)[C@@H]3CC[C@]12C [Rb3]
[1]
  Aβ42-lowering activity: No

## CSc1ccc(/C=C2/C(C)=C(CC(=O)O)c3cc(F)ccc32)cc1 [sulindac sulfide, reference compound]
γ-secretase [2]
  cell-free generation of AICD, NICD and p75-ICD: abundantly produced
γ-secretase [2]; listed as sulinac sulfide
  cell-free generation of AICD, NICD and p75-ICD: did not affect
γ-secretase [4]
  Aβ42 generation in vitro: potently inhibited
[1]; overnight treatment, CHO-APP cells
  Aβ40 production: slightly affected

## CC(C)=CCC[C@](C)(O[C@@H]1O[C@H](CO)[C@@H](O)[C@H](O)[C@H]1O)[C@H]1CC[C@]2(C)[C@@H]1[C@H](O)C[C@@H]1[C@@]3(C)CC[C@H](O)C(C)(C)[C@@H]3[C@@H](O[C@@H]3O[C@H](CO)[C@@H](O)[C@H](O)[C@H]3O)C[C@]12C [Rg1]
[1]
  inhibitory effects on Aβ40 and Aβ42 production: None
  Aβ42-lowering activity: No
[1]; mammalian cells, in vitro
  production of Aβ42 in cells (summary statement): no amyloid reducing activity in vitro

## CC(C)=CCC[C@](C)(O[C@@H]1O[C@H](CO[C@@H]2O[C@H](CO)[C@@H](O)[C@H](O)[C@H]2O)[C@@H](O)[C@H](O)[C@H]1O)[C@H]1CC[C@]2(C)[C@@H]1[C@H](O)C[C@@H]1[C@@]3(C)CC[C@H](O[C@@H]4O[C@H](CO)[C@@H](O)[C@H](O)[C@H]4O[C@@H]4O[C@H](CO)[C@@H](O)[C@H](O)[C@H]4O)C(C)(C)[C@@H]3CC[C@]12C [Rb1]
[1]
  inhibitory effects on Aβ40 and Aβ42 production: None
  Aβ42-lowering activity: No

## COc1ccc2cc([C@H](C)C(=O)O)ccc2c1 [naproxen, reference compound]
γ-secretase [4]
  Aβ42 generation in vitro: no effects

## CC(C)=CCC[C@](C)(O[C@@H]1O[C@H](CO[C@@H]2OC[C@H](O)[C@H](O)[C@H]2O)[C@@H](O)[C@H](O)[C@H]1O)[C@H]1CC[C@]2(C)[C@@H]1[C@H](O)C[C@@H]1[C@@]3(C)CC[C@H](O[C@@H]4O[C@H](CO)[C@@H](O)[C@H](O)[C@H]4O[C@@H]4O[C@H](CO)[C@@H](O)[C@H](O)[C@H]4O)C(C)(C)[C@@H]3CC[C@]12C [Rb2]
[1]
  inhibitory effects on Aβ40 and Aβ42 production: None
  Aβ42-lowering activity: No

## CC(C)=CCCC(C)(O)[C@H]1CC[C@]2(C)[C@@H]1[C@H](O)C[C@@H]1[C@@]3(C)CC[C@H](O)C(C)(C)[C@@H]3CC[C@]12C (stereo in doubt) [PPD, Protopanaxadiol]
[3]
  inhibitory effects on Aβ40 or Aβ42 generation: did not confer any inhibitory effects
[1]
  Aβ42-lowering activity: No

## CC(C)=CCC[C@](C)(O)[C@H]1CC[C@]2(C)[C@@H]1[C@H](O)C[C@@H]1[C@@]3(C)CC[C@H](O)C(C)(C)[C@@H]3[C@@H](O)C[C@]12C [PPT, Protopanaxatiol]
[3]
  levels of Aβ42: without affecting
  production of Aβ42: reduced
[1]
  Aβ42-lowering activity: Yes

## CC(C)=CCC[C@@](C)(O)[C@H]1CC[C@]2(C)[C@@H]1[C@H](O)C[C@@H]1[C@@]3(C)CC[C@H](O[C@@H]4O[C@H](CO)[C@@H](O)[C@H](O)[C@H]4O[C@@H]4O[C@H](CO)[C@@H](O)[C@H](O)[C@H]4O)C(C)(C)[C@@H]3CC[C@]12C [(20R)Rg3]
[1]; CHO cells stably transfected with human APP695, 50 μg/ml, 8 hrs
  generation of Aβ42 (Aβ42 levels in the medium, ELISA, normalized to intracellular full-length APP): reduce
[1]
  Aβ42-lowering activity: Yes
[1]; heat-processing derived ginsenosides
  secretion of Aβ42 (initial screening): not affected
CHO-APP/PS1 cells
  potency of Aβ42-reducing activity (order): Rk1>/=(20S)Rg3>Rg5>(20R)Rg3

## CC1(C)CCC[C@](C)([C@H]2CC[C@]3(C)[C@@H]2[C@H](O)C[C@@H]2[C@@]4(C)CC[C@H](O)C(C)(C)[C@@H]4[C@@H](O)C[C@]23C)O1 [PT, 20(S)-panaxatriol]
[3]
  levels of Aβ42: without affecting
  production of Aβ42: reduced
